Values of other authors as cited in patent US20020115211A1, “A METHOD FOR IN VITRO MATURATION OF HUMAN GAMETES” (MEDI-CULT A/S, priority 1998, published 2002).

Tested on: immature human gametes
Details: presence in the culture medium; recent research

## insulin: Component of the SSR media additives
  effect on the chance for successful pregnancy: negative effect
